According to patent US5534554A, “Sucrose ester-C20 to C28 alcohol formulations” (priority 1994, dated 1996):

Tests used:
[1] = tested on: HSV; experiment: Inhibition of HSV-induced plaques in Vero versus MDBK cells; type: cell-based
[2] = tested on: Herpes simplex virus type 1; experiment: Inhibition of HSV type 1 infectivity in simian and human cell lines; type: cell-based, HSV-1
[3] = tested on: Influenza A; experiment: Antiviral activity against influenza A; type: cell-based; conditions: Table 6, human viruses
[4] = tested on: viruses; conditions: U.S. Pat. No. 4,874,794; cited from earlier work
[5] = tested on: Friend virus; experiment: Friend virus-induced leukemia and viremia in mice; type: in vivo, BALB/c mice; conditions: intravenous
[6] = tested on: recurrent herpes genitalis; experiment: Study B: trial in female patients with recurrent herpes genitalis; type: in vivo, human; conditions: all patients
Text: (§1) Two clinical efficacy studies have been completed. Study A was a randomized, double-blind, placebo-controlled Phase 2 study in 63 patients (male and female) with recurrent herpes labialis. All of the 31 n-docosanol 10% cream-treated patients in the herpes labialis study, Study A, completed their treatment; 2 of those 31 patients reported a burning or stinging sensation after application of the cream. […] Study B was a randomized, double-blind, placebo-controlled trial in 44 female patients with recurrent herpes genitalis.
In the first clinical study, sixty female patients with recurrent herpes genitalis entered the study while symptom-free and not in a prodromal stage. […]
Three pain analyses were conducted, based on patients' self-assessment of pain: time to sustained "no pain"; time to first "no pain"; and time to first reduction of pain. Time to sustained "no pain" was measured from the time of first pain at application to the time when 1 ) pain was scored as "no pain" for a minimum of 2 consecutive recordings; and 2) during the remainder of the episode, additional pain recordings were no more frequent and severe than 2 separated episodes of 2 consecutive recordings of "mild" pain. […] Time to first reduction in pain was measured from the time of first pain at application to the first time when a decrease in pain level was noted, relative to the previous assessment. […]

[7] = tested on: HIV-1; experiment: HIV-1 replication in PHA/IL-2-stimulated human peripheral blood mononuclear cells (p24 ELISA); type: cell-based
Procedure: Human peripheral blood mononuclear cells were cultured in medium containing 1 μg/ml PHA plus 5 units/ml IL-2 alone or also containing 100 μg/ml PFA, […] F-68 control vehicle contained in the high dose of n-docosanol/Pluronic. After overnight incubation, the cultures were inoculated with HIV-1 at a multiplicity of infection of 1 virion/cell. After 24 hours incubation at 37° C., the cultures were washed and inoculated with fresh medium containing PHA and IL-2, but lacking inhibitor. Replication of HIV-1 was determined 4 days later by quantitation of viral antigens by a p24-specific ELISA for HIV-1.
Our initial studies on HIV were conducted in collaboration with a U.S. National Institutes of Health laboratory and one of several experiments of this type is summarized in FIG. 13. Normal human peripheral blood mononuclear cells were activated with […] PHA plus 5 units/ml of IL-2 in medium alone or in the presence of the n-docosanol, Pluronic F-68 control vehicle, or phosphonoformic acid (PFA). The next day, the cultures were inoculated with HIV-1 and examined 4 days later for evidence of viral replication by detection of the p24 viral antigen. […] The dose response of HIV-1 to n-docosanol indicates an ED 50 of about 6-9 mM.

[8] = tested on: Human Herpesvirus-6; experiment: Antiviral activity against human herpesvirus-6; type: cell-based
[9] = tested on: recurrent herpes labialis; experiment: Study A: Phase 2 study in recurrent herpes labialis; type: in vivo, human; conditions: for time to healing, mean: 10% cream, all treatment episodes
Text: as §1
Sixty five patients (aged 18-60) took part in the Study A, 32 patients were initially randomized to receive 10% n-docosanol cream and 33 were initially randomized to receive placebo cream. Treatment was patient-initiated, and treatment initiation was defined as `early` if the treatment started at prodrome or erythema stage and as `late` if started at the papule stage or later. Two patients were excluded from the analysis. Of the 63 evaluable patients, 22 were entered into the cross-over phase of the study. In addition, 13 patients treated more than one episode with the same study medication. Therefore, a total of 98 herpes episodes--48 treated with 10% n-docosanol cream and 50 treated with placebo cream--were analyzed.

[10] = tested on: Vero cells
[11] = tested on: Varicella Zoster Virus; experiment: Antiviral activity against varicella zoster virus; type: cell-based; conditions: Table 6, human viruses
[12] = tested on: murine retroviruses; experiment: Replication of murine retroviruses in vitro and in vivo
Text: n-Docosanol has anti-retroviral activity both in vitro and in vivo. […] Notwithstanding the implications for treatment of AIDS, availability of a treatment regimen for diseases caused by retroviruses like feline leukemia virus, bovine leukemia virus, as well HTLV-1 and -2 would have substantial benefits in humanitarian terms.

[13] = tested on: reovirus; experiment: Antiviral activity against reovirus; type: cell-based; conditions: nonenveloped virus

Question: What does the source list for `CCCCCCCCCCCCCCCCCCCCCCO` [n-docosanol]?
Answer: effectiveness in inhibiting HSV-induced plaques, Vero relative to MDBK cells [1]: 3-4 fold; susceptibility to antiviral activity: Herpes Simplex - 1 ([2]; Table 6): susceptible; inhibitory activity in vitro ([2]; suspension in Pluronic F-68): excellent inhibitory activity; susceptibility to antiviral activity: Influenza A [3]: susceptible; antiviral properties [4]: favorable; inhibition of development of leukemic foci ([5]; FIG. 12 Panel A): very clear dose-related inhibitory affect; inhibition of development of viremia ([5]; FIG. 12 Panel B): very clear dose-related inhibitory affect; average healing time based on patient ratings ([6]; 10% cream, placebo 4.5): 5.6 days; difference in mean time to healing versus placebo ([6]; p=0.2703): no statistically significant difference; activity at the highest dose compared with PFA ([7]; FIG. 13): comparable to that observed with the very potent antiviral compound, phosphonoformic acid (PFA); EC50 ([7]; Human immunodeficiency virus 1, PBMC, dose response of HIV-1, read-out: ED 50 (the source's name)): 6 to 9 mM; susceptibility to antiviral activity: HIV-1 ([7]; Table 6, human viruses): susceptible; inhibition of HIV-1 replication ([7]; n-docosanol/Pluronic, FIG. 13): dose-related inhibitory activity; antiviral HIV activity in Tetronic ([7]; suspended in Tetronic): even higher levels of antiviral HIV activity; inhibition of in vitro replication of human herpes virus 6 [8]: inhibits in vitro replication; susceptibility to antiviral activity: Human Herpesvirus-6 ([8]; Table 6, human viruses): susceptible; time to healing, mean ([9]; all treatments): 5.7 days; time to healing, mean ([9]; early treatment): 3.4 days; reduction in mean overall healing time versus placebo ([9]; all 98 episodes, P=0.02): 1.6 days; reduction in mean healing time ([9]; all episodes, early treatment, P=0.05): 3.3 days; difference in healing time, late treatment ([9]; cross-over portion, P=0.03): significant difference in favor of n-docosanol; counts migrating in the region of phosphatidylcholine [10]: approximately 62%; counts migrating in the region of phosphatidylethanolamine [10]: ~38%; levels of metabolic conversion, Tetronic relative to Pluronic [10]: 3 fold; metabolic conversion [10]: progressively metabolized to polar compounds; susceptibility to antiviral activity: Varicella Zoster Virus [11]: susceptible; inhibition of murine retrovirus replication [12]: does inhibit replication of murine retroviruses in vitro and in vivo; activity against reovirus [13]: no detectable activity
